What was measured:
ISF Aβ [1] = test: ISF Aβ levels by hippocampal microdialysis and sandwich ELISA in APP/PS1+/− transgenic mice; assay type: in vivo; conditions: for ISF levels of Aβ: Example 1
Method: Wild-type or APP/PS1+/− transgenic mice at the indicated ages (equal male and female) were implanted with unilateral hippocampal microdialysis probes at stereotaxic coordinates (bregma—3.1 mm, 2.5m lateral to midline, and 1.2 mm below dura at a 12° angle) as described (Cirrito et al. 2003; 2011). These probes contain a 38 kDa MWCO semi-permeable membrane and sample Aβ specifically from within the brain ISF. ISF Aβ was measured every 60-90 minutes for up to 72 hours after probe was inserted into the brain. Throughout each study mice was housed in RaTurn caging systems to provide freedom of movement and ad lib food and water while attached the microdialysis equipment. After probe insertion, animals were allowed to recover for 6 hours in order for the brain to recover and the blood-brain barrier to reform. Microdialysis probe insertion was similar to the procedure described by Cirrito et al. 2003 and 2011. From hours 6-60 after microdialysis probe insertion, ISF Aβ levels were relatively constant which provides the ideal experimental window. After recovery, each mouse had baseline ISF Aβ levels sampled every hour over a 6 hour period followed by administration of either vehicle (saline, pH 6.0 or M DL 100,907. Following drug administration, ISF Aβ was measured every 60-90 minutes for an additional 48 hours. At the end of each experiment ISF Aβ40 was immediately measured by sandwich ELISA. Animals were sacrificed, brains removed, then processed for histological verification of probe placement. FIG. 1A-FIG. 1D discloses the results of Example 1 (MDL 100,907 (M100), a selective 5-HT2A Serotonin Receptor Inverse Agonist on ISF levels of Aβ40 and Aβ42 in wild-type, and in young and aged APP/PS1+/− Transgenic Mice). […] APP/PS1+/− transgenic mice at the indicated ages (equal male and female) were implanted with unilateral hippocampal microdialysis probes at stereotaxic coordinates (bregma—3.1 mm, 2.5m lateral to midline, and 1.2 mm below dura at a 12° angle) as described (Cirrito et al. 2003 and 2011) and ISF Aβ levels measured as described in Example 1. […]

ISF Aβ [2] = test: ISF Aβ levels by hippocampal microdialysis in wild-type mice; assay type: in vivo; conditions: 2.5 to 3 months, Example 3, pimavanserin 1 mg/kg, MDL 100,907 3 mg/kg
Method: Wild-type or APP/PS1+/− transgenic mice at the indicated ages (equal male and female) were implanted with unilateral hippocampal microdialysis probes at stereotaxic coordinates (bregma—3.1 mm, 2.5m lateral to midline, and 1.2 mm below dura at a 12° angle) as described (Cirrito et al. 2003; 2011). These probes contain a 38 kDa MWCO semi-permeable membrane and sample Aβ specifically from within the brain ISF. ISF Aβ was measured every 60-90 minutes for up to 72 hours after probe was inserted into the brain. Throughout each study mice was housed in RaTurn caging systems to provide freedom of movement and ad lib food and water while attached the microdialysis equipment. […] After recovery, each mouse had baseline ISF Aβ levels sampled every hour over a 6 hour period followed by administration of either vehicle (saline, pH 6.0 or M DL 100,907. Following drug administration, ISF Aβ was measured every 60-90 minutes for an additional 48 hours. At the end of each experiment ISF Aβ40 was immediately measured by sandwich ELISA. Animals were sacrificed, brains removed, then processed for histological verification of probe placement. FIG. 1A-FIG. 1D discloses the results of Example 1 (MDL 100,907 (M100), a selective 5-HT2A Serotonin Receptor Inverse Agonist on ISF levels of Aβ40 and Aβ42 in wild-type, and in young and aged APP/PS1+/− Transgenic Mice). […]

Aβ40 and Aβ42 [3] = test: Aβ40 and Aβ42 in 5M guanidine hippocampal extracts (ELISA) after chronic treatment of APP/PS1+/− mice; assay type: in vivo
Text: (§1) Incisions were closed by suture or staple to insure the pumps remained in place. Every 5 weeks pumps were removed and new full pumps implanted in the same manner at a different location on the back to provide continuous drug delivery over the 4 month period. In parallel, age and gender matched cohorts of APP/PS1+/− transgenic mice were sacrificed so that amyloid plaque and Aβ levels at the start of treatment could be compared to mice at the end of treatment. […] At the end of the 4 month treatment period, mice were sacrificed, brains removed, and divided into hemispheres. One hemisphere per mouse was processed for guanidine extraction and biochemical analysis by ELISA of Aβ40 and Aβ42 levels in hippocampus as described in Cirrito et al., 2011, with the 5 Molar Guanidine extracts representing the insoluble fractions of Aβ40 and Aβ42. The insoluble fraction is believed to represent the harmful amyloid plaque deposits that are characteristic of Alzheimer's disease. The other hemisphere was used to perform histological staining and analysis of amyloid plaque growth. Start indicates the age and gender matched cohorts sacrificed at the start of the study. Guan indicates 5 Molar Gaunidine. FIG. 4A) 5M Gaunidine fraction of Aβ40 and Aβ42, all genders. FIG. 4B) 5M Guanidine fraction, male and female.
Male and Female APP/PS1+/− transgenic mice, age 6 months, were implanted with Alzet osmotic minipumps and treated as described in Example 4. At the end of the 4 month treatment period, mice were sacrificed, brains removed, and divided into hemispheres. In parallel, age and gender matched cohorts of APP/PS1+/− transgenic mice were sacrificed so that amyloid plaque and Aβ levels at the start of treatment could be compared to mice at the end of treatment. Start indicates the age and gender matched cohorts sacrificed at the start of the study. Guan indicates 5 Molar Gaunidine. FIG. 6A) 5M Gaunidine fraction of Aβ40 and Aβ42, all genders. FIG. 6B) F) 5M Guanidine fraction of Aβ40 and Aβ42, male and female. […] Example 7.

amyloid plaque = test: Histological staining of hippocampus for amyloid plaque load after chronic treatment of APP/PS1+/− mice; assay type: in vivo
Text: as §1, with “female. […]” for “female.”

Aβ40 and Aβ42 [4] = test: Aβ40 and Aβ42 in CSF (ELISA) after chronic treatment of APP/PS1+/− mice; assay type: in vivo; conditions: 6 month old APP/PS1 mice treated for 4 months; Example 8
Text: as §1, with “The other hemisphere was used to perform histological staining and analysis of amyloid plaque growth. Start indicates the age and gender matched cohorts sacrificed at the start of the study. Guan indicates 5 Molar Gaunidine. FIG. 4A) 5M Gaunidine fraction of Aβ40 and Aβ42, all genders. FIG. 4B) 5M Guanidine fraction, male and female.” left out
Male and Female APP/PS1+/− transgenic mice, age 6 months, were implanted with Alzet osmotic minipumps and treated as described in Example 4. At the end of the 4 month treatment period, mice were sacrificed, CSF removed using the method of DeMattos et al., 2002 (see page 230, Materials and Methods), and Aβ40 and Aβ42 levels analyzed by ELISA. […]

beta amyloid = conditions: cited from earlier work; for beta amyloid levels and Plaque Burden: Mouse Model of AD
ISF Aβ [5] = test: ISF Aβ levels by hippocampal microdialysis in 5-HT2A−/− mice; assay type: in vivo; conditions: 5-HT2A KO (5-HT2A−/−) mice; Example 3; pimavanserin 1 mg/kg, MDL 100,907 3 mg/kg
Method: Following drug administration, ISF Aβ was measured every 3 hours for an additional 24 hours.

CC(C)COc1ccc(CNC(=O)N(Cc2ccc(F)cc2)C2CCN(C)CC2)cc1.O=C(O)C(O)C(O)C(=O)O [pimavanserin, N-(1-methylpiperidin-4-yl)-N-(4-fluorophenylmethyl)-N′-(4-(2-methylpropyloxy)phenylmethyl)carbamide]
ISF Aβ (ISF Aβ [1]; APP/PS1 mice, single bolus doses or continuous infusion, Example 2): robustly lowered ISF Aβ in APP/PS1 mice in a dose dependent manner
Brain ISF Aβ levels (ISF Aβ [2]): Normalize Brain ISF Aβ Levels
Aβ40 (guanidine fraction) in male mice, treated group (age 10 months) compared to start group (age 6 months) (Aβ40 and Aβ42 [3]; male mice, Example 6B): reduction in Aβ40
levels of the guanidine fraction of Aβ40 and Aβ42 in hippocampus, compared to vehicle treated mice (Aβ40 and Aβ42 [3]; treatment from age 4.5 months for 4 months, osmotic minipump 3 mg/kg/day, Example 4): highly significant reduction
levels of Aβ40 and Aβ42 (guanidine fraction), treated group at end compared to 'Start' group (Aβ40 and Aβ42 [3]; treatment from age 4.5 months for 4 months, Example 4): not a significant difference
levels of the guanidine fraction of Aβ40 and Aβ42 in hippocampus, compared to vehicle treated mice (Aβ40 and Aβ42 [3]; treatment from age 6 months for 4 months, osmotic minipump, Example 6): highly significant reduction
levels of Aβ40 and Aβ42 (guanidine fraction), treated group at end compared to 'Start' group (Aβ40 and Aβ42 [3]; treatment from age 6 months for 4 months, Example 6): not a significant difference
amyloid plaque in hippocampus (histological staining), compared to vehicle treated mice (amyloid plaque; treatment from age 4.5 months for 4 months, Example 5): highly significant decreases of amyloid plaque
amyloid plaque in hippocampus (histological staining), compared to vehicle treated mice (amyloid plaque; treatment from age 6 months for 4 months, Example 7): highly significant decreases of amyloid plaque
Aβ in CSF (Aβ40 and Aβ42 [4]): significantly lowered Aβ

CN(C)CC(c1ccc(O)cc1)C1(O)CCCCC1 (centres unmarked) [desvenlafaxine]
beta amyloid levels and Plaque Burden (beta amyloid): lower beta amyloid levels and Plaque Burden

COc1cccc([C@H](O)C2CCN(CCc3ccc(F)cc3)CC2)c1OC [M100,907, (R)-(+)-α-(2,3-Dimethoxyphenyl)-1-[2-(4-fluorophenyl)ethyl]-4-piperinemethanol]
ISF levels of Aβ (ISF Aβ [1]; old (12 month old, fully formed amyloid plaques) APP/PS1 mice): robustly lowered levels of Aβ in a dose dependent manner
ISF levels of Aβ (ISF Aβ [1]; young (3 month old, pre-plaque) APP/PS1 mice): robustly lowered levels of Aβ in a dose dependent manner
Brain ISF Aβ levels (ISF Aβ [2]): Normalize Brain ISF Aβ Levels
Aβ-lowering effect on ISF Aβ (ISF Aβ [5]): abolished

NCCc1c[nH]c2ccc(O)cc12 [serotonin]
ISF Aβ40 and Aβ42 levels (beta amyloid; direct infusion into the hippocampus): reduced ISF Aβ40 and Aβ42 levels

CNCCC(Oc1ccc(C(F)(F)F)cc1)c1ccccc1 (centres unmarked) [fluoxetine]
beta amyloid levels and Plaque Burden (beta amyloid): lower beta amyloid levels and Plaque Burden

Source: patent publication US20220000852A1, “5-HT2A SEROTONIN RECEPTOR INVERSE AGONISTS OR ANTAGONISTS FOR USE IN REDUCING AMYLOID-BETA PEPTIDES AND ACCUMULATION OF AMYLOID PLAQUES” (ACADIA Pharmaceuticals Inc., priority 2016, published 2022)
